The values that follow come from BindingDB's records for doi:10.1007/BF00173012 (Sandoz Pharma, 1994).

pKi: −log10 of the molar value. *1 amine or outer side, *2 acyl side, *3 side chain or, on linkers, in order; H or OH if unused. Where a SMILES comes first, the peptide text is derived from it. Bridges are numbered along the chain shown (N, C = ends). [ ]: non-standard residue; d: D form. The star is where a group is joined. ξ: configuration not given here. X3 = C[C@@H](C(=O)[*:2])N(Cc1ccc2ccccc2c1)[*:1]; Phe(4-Cl) = N[C@@H](Cc1ccc(Cl)cc1)C(=O)O; d2Nal = N[C@H](Cc1ccc2ccccc2c1)C(=O)O; dNMeF = CN[C@H](Cc1ccccc1)C(=O)O; dThr(3ξ) = CC(O)[C@@H](N)C(=O)O; NMeA = CN[C@@H](C)C(=O)O; dNMeA = CN[C@H](C)C(=O)O; ξF = NC(Cc1ccccc1)C(=O)O; Abu = CC[C@H](N)C(=O)O; X2 = CC(O)[C@H](CO)N*; Ahp = NCCCCCCC(=O)O; Bn = c1ccc(C*)cc1; ξC = NC(CS)C(=O)O

The target of experiment [1] is T1, Somatostatin receptor type 5 (Rattus norvegicus, UniProt P30938).
T1 sequence (P30938 whole entry): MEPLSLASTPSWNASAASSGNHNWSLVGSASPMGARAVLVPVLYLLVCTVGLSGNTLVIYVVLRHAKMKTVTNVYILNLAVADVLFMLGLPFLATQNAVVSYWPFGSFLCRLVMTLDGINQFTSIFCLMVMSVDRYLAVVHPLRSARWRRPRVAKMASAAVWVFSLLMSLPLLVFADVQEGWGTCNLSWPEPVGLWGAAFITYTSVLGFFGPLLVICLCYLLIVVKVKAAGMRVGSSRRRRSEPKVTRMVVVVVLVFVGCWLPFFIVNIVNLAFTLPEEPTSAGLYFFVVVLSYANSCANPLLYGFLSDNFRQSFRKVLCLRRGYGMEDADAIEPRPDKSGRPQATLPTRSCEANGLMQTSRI

Experiment [2] addresses Somatostatin receptor type 4 (Mus musculus, UniProt P49660).
For experiment [3], the target named is Somatostatin receptor type 3 (Mus musculus, UniProt P30935).
Sequence of Somatostatin receptor type 3 (P30935 whole entry): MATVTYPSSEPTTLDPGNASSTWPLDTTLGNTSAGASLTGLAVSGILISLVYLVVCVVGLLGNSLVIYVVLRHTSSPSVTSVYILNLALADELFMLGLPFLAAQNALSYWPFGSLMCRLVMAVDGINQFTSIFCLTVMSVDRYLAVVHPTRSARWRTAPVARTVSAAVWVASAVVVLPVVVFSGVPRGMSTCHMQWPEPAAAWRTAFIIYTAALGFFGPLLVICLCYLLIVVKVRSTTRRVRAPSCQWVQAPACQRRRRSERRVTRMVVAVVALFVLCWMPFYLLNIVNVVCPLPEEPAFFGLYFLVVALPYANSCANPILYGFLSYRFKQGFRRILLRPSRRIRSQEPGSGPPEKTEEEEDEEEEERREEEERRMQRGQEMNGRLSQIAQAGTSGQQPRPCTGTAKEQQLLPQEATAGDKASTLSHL

Sequence of Somatostatin receptor type 4 (P49660 whole entry): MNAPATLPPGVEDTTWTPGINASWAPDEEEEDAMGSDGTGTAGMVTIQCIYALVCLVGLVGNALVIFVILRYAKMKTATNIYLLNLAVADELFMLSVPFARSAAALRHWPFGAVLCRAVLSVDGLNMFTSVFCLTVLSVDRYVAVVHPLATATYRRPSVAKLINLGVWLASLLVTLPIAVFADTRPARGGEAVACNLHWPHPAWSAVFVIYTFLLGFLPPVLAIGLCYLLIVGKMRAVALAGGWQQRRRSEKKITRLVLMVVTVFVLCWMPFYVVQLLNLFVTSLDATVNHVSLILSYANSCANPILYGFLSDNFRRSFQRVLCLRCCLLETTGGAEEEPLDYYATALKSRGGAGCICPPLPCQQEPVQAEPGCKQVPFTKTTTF

Usually pKi stands for −log10 of the Ki, conventionally taken in molar units. The low end stands for a large Ki, the high end for a small Ki. For `CC(O)[C@H](CO)NC(=O)[C@@H]1CSSCC(NC(=O)C(N)Cc2ccccc2)C(=O)N[C@H](Cc2ccccc2)C(=O)N[C@H](Cc2c[nH]c3ccccc23)C(=O)N[C@H](CCCCN)C(=O)N[C@H](C(C)O)C(=O)N1` (some centres not stated) (H-[ξF][ξC][dF][dW][dK][dThr(3ξ)]C-X2; disulfide 2-7), the negative-log Ki (pKi) in experiment [1] is 9.24. Take `C[C@@H](O)[C@@H]1NC(=O)[C@H](CCCCN)NC(=O)[C@@H](Cc2c[nH]c3ccccc23)NC(=O)[C@H](Cc2ccccc2)NC(=O)[C@@H]2CCCN2C(=O)[C@H](Cc2ccccc2)NC1=O` (cyclo(PF[dW]KTF)): the values for the pKi in experiment [1] and in experiment [2] were 8.49 and 6.00, respectively.

As to `CC(C)[C@@H]1NC(=O)[C@H](CCCCN)NC(=O)[C@@H](Cc2c[nH]c3ccccc23)NC(=O)[C@H](Cc2ccc(O)cc2)NC(=O)[C@@H](NC(=O)[C@H](N)Cc2ccc3ccccc3c2)CSSC[C@@H](C(=O)N[C@H](C(N)=O)[C@@H](C)O)NC1=O` [3-(2-Naphtyl)-D-Ala-L-Cys(1)-L-Tyr-D-Trp-L-Lys-L-Val-L-Cys(1)-L-Thr-NH2], the pKi in experiment [1] was 10.00. With `CC[C@@H]1NC(=O)[C@H](CCCCN)NC(=O)[C@@H](Cc2c[nH]c3ccccc23)NC(=O)[C@H](Cc2ccc(O)cc2)NC(=O)[C@H](C)N(C)C(=O)[C@H](Cc2ccccc2)NC1=O` [BIM-23027] (cyclo([Abu]F[NMeA]Y[dW]K)), the pKi in experiment [1] was 8.21; in experiment [2] it was 6.00. For the molecule `CC(C)[C@H](NC(=O)[C@H](CCCCN)NC(=O)[C@@H](Cc1c[nH]c2ccccc12)NC(=O)[C@H](Cc1ccc(O)cc1)NC(=O)[C@H](Cc1ccccc1)NC(=O)[C@@H](N)Cc1ccccc1)C(=O)N[C@@H](Cc1ccccc1)C(=O)N[C@H](C(N)=O)[C@@H](C)O` [BIM-23058] (H-FFY[dW]KVFT-NH2), the pKi in experiment [1] was 8.92. Turning to `CC(C)[C@H](NC(=O)[C@H](CCCCN)NC(=O)[C@@H](Cc1c[nH]c2ccccc12)NC(=O)[C@H](Cc1ccc(O)cc1)NC(=O)[C@H](Cc1ccccc1)NC(=O)[C@H](N)Cc1ccccc1)C(=O)N[C@@H](Cc1ccccc1)C(=O)N[C@H](C(N)=O)[C@@H](C)O` [BIM-23058] (H-[dF]FY[dW]KVFT-NH2), the negative logarithm of the Ki (pKi) in experiment [3] is 10.52; in experiment [2] it was 7.11. Regarding `CC(C)C1NC(=O)C(CCCCN)NC(=O)C(Cc2c[nH]c3ccccc23)NC(=O)C(Cc2ccc(O)cc2)NC(=O)C(NC(=O)C(N)Cc2ccccc2)CSSCC(C(=O)NC(Cc2c[nH]c3ccccc23)C(N)=O)NC1=O` (configuration not stated) [CAS_71306] (H-FCYWKVCW-NH2; disulfide 2-7; configuration not given here), the pKi in experiment [1] was 8.80. Turning to `C[C@@H](O)[C@H](NC(=O)[C@H](Cc1ccccc1)NC(=O)[C@@H](NC(=O)[C@H](CCCCN)NC(=O)[C@@H](Cc1c[nH]c2ccccc12)NC(=O)[C@H](Cc1ccccc1)NC(=O)[C@H](Cc1ccccc1)NC(=O)[C@H](N)Cc1ccccc1)[C@@H](C)O)C(N)=O` [CAS_133073-82-2] (H-[dF]FF[dW]KTFT-NH2), the values for the negative-log Ki (pKi) in experiment [3] and in experiment [2] were 9.39 and 7.74, respectively. Regarding `CC(C)C1NC(=O)C(CCCCN)NC(=O)C(Cc2c[nH]c3ccccc23)NC(=O)C(Cc2ccc(O)cc2)NC(=O)C(C)N(C)C(=O)C(Cc2ccccc2)NC1=O` (configuration not stated) [CAS_3086456], the pKi in experiment [1] was 8.26.

The molecule `CC(C)[C@@H]1NC(=O)[C@H](CCCCN)NC(=O)[C@@H](Cc2c[nH]c3ccccc23)NC(=O)[C@H](Cc2ccc(O)cc2)NC(=O)[C@H](C)N(C)C(=O)[C@H](Cc2ccccc2)NC1=O` [CAS_3086456] showed a negative logarithm of the Ki (pKi) in experiment [2] of 6.00. For `C[C@H](O)[C@@H]1NC(=O)C(CCCCN)NC(=O)[C@@H](Cc2c[nH]c3ccccc23)NC(=O)C(Cc2ccccc2)NC(=O)C(Cc2ccccc2)NC(=O)C(CC(N)=O)NC(=O)C(CCCCN)NC(=O)CCCCC[C@H](C(=O)O)NC(=O)[C@@H](CO)NC(=O)[C@H]([C@H](C)O)NC(=O)[C@@H](Cc2ccc(O)cc2)NC1=O` (some centres not stated) [CGP-23996], the pKi in experiment [1] was 8.33. Regarding `CC(C)[C@H](NC(=O)[C@H](CCCCN)NC(=O)[C@@H](Cc1c[nH]c2ccccc12)NC(=O)[C@H](Cc1ccc(O)cc1)NC(=O)[C@H](C)NCc1ccc2ccccc2c1)C(=O)N[C@@H](C)C(=O)N[C@H](C(N)=O)[C@@H](C)O` [D-Nal-Ala-Tyr-D-Trp-Lys-Val-Ala-Thr-NH2] (H-[X3]Y[dW]KVAT-NH2), in experiment [1], the negative-log Ki (pKi) was 6.84. Turning to `CC(C)[C@H](NC(=O)[C@H](CCCCN)NC(=O)[C@@H](Cc1c[nH]c2ccccc12)NC(=O)[C@H](Cc1ccc(O)cc1)NC(=O)[C@H](C)NC(=O)[C@H](N)Cc1ccc2ccccc2c1)C(=O)N[C@@H](C)C(=O)N[C@H](C(N)=O)[C@@H](C)O` [D-Nal-Ala-Tyr-D-Trp-Lys-Val-Ala-Thr-NH2] (H-[d2Nal]AY[dW]KVAT-NH2), in experiment [2], the pKi was 6.00. Regarding `CC(CO)C(NC(=O)C1NC(=O)N[C@@H](Cc2ccc(O)cc2)C(=O)N[C@H](Cc2c[nH]c3ccccc23)C(=O)N[C@@H](CCCCN)C(=O)N[C@@H](C(C)CO)C(=O)NC(C(=O)N[C@@H](Cc2ccc3ccccc3c2)C(N)=O)SS1)C(N)=O` (stereo partly drawn) [D-Nal-c[Cys-Tyr-D-Trp-Lys-Thr-Cys]-Thr-NH2], the negative-log Ki (pKi) in experiment [1] is 10.15.

With `CC(C)[C@H](NC(=O)[C@H](CCCCN)NC(=O)[C@@H](Cc1c[nH]c2ccccc12)NC(=O)[C@H](Cc1ccc(O)cc1)NC(=O)[C@H](C)NC(=O)[C@H](N)Cc1ccccc1)C(=O)N[C@@H](C)C(=O)N[C@H](Cc1ccc2ccccc2c1)C(N)=O` [D-Phe-AIa-Tyr-D-Trp-Lys-Val-Ala-D-Nal-NH2] (H-[dF]AY[dW]KVA[d2Nal]-NH2), the negative-log Ki (pKi) in experiment [1] is 8.23; in experiment [2], 6.00. For the molecule `CC[C@@H]1NC(=O)[C@H](CCCCN)NC(=O)[C@@H](Cc2c[nH]c3ccccc23)NC(=O)[C@H](Cc2ccc(O)cc2)NC(=O)[C@@H](NC(=O)[C@H](N)Cc2ccccc2)CSSC[C@@H](C(=O)N[C@H](C(N)=O)[C@@H](C)O)NC1=O` [D-Phe-L-Cys(1)-L-Tyr-D-Trp-L-Lys-L-Abu-L-Cys(1)-L-Thr-NH2], the pKi in experiment [1] was 9.74. On to `CC(C)[C@H](NC(=O)[C@H](CCCCN)NC(=O)[C@@H](Cc1c[nH]c2ccccc12)NC(=O)[C@H](Cc1ccc(O)cc1)NC(=O)[C@H](Cc1ccccc1)NC(=O)[C@H](N)Cc1ccccc1)C(=O)N[C@@H](Cc1ccccc1)C(=O)N[C@H](Cc1ccccc1)C(N)=O` [D-Phe-Phe-Tyr-D-Trp-Lys-Val-Phe-D-Phe-NH2] (H-[dF]FY[dW]KVF[dF]-NH2), for which the results for the negative logarithm of the Ki (pKi) in experiment [1] and in experiment [2] were 8.48 and 6.60, respectively. On to `C[C@@H](O)[C@@H]1NC(=O)[C@H](CCCCN)NC(=O)[C@@H](Cc2c[nH]c3ccccc23)NC(=O)[C@H](Cc2c[nH]c3ccccc23)NC(=O)[C@H](Cc2ccccc2)NC(=O)CCCCCCNC(=O)[C@H](Cc2ccccc2)NC1=O` [L-362855] (cyclo([Ahp]FW[dW]KTF)), for which the negative logarithm of the Ki (pKi) was 11.00 in experiment [1] and 7.20 in experiment [2].

In experiment [2], `C[C@@H](O)[C@@H]1NC(=O)[C@H](CCCCN)NC(=O)[C@@H](Cc2c[nH]c3ccccc23)NC(=O)[C@H](Cc2ccc(Cl)cc2)NC(=O)[C@H](Cc2ccccc2)NC(=O)CCCCCCNC(=O)[C@H](Cc2ccccc2)NC1=O` [L-362862] (cyclo([Ahp]F[Phe(4-Cl)][dW]KTF)) gave a pKi of 7.36.

On to `C[C@@H](O)[C@@H]1NC(=O)[C@H](CCCCN)NC(=O)[C@@H](Cc2c[nH]c3ccccc23)NC(=O)[C@H](Cc2ccccc2)NC(=O)[C@H](Cc2ccc(Cl)cc2)NC(=O)CCCCCCNC(=O)[C@H](Cc2ccccc2)NC1=O` [L-362862] (cyclo([Ahp][Phe(4-Cl)]F[dW]KTF)), for which, in experiment [1], the pKi was 9.34. Consider `CSCC[C@H](NC(=O)[C@H](C)NC(=O)[C@@H]1CCCN1C(=O)[C@H](CC(N)=O)NC(=O)[C@H](CO)NC(=O)[C@H](CC(N)=O)NC(=O)[C@H](C)NC(=O)[C@@H](N)CO)C(=O)N[C@@H](C)C(=O)N1CCC[C@H]1C(=O)N[C@@H](CCCNC(=N)N)C(=O)N[C@@H](CCC(=O)O)C(=O)N[C@@H](CCCNC(=N)N)C(=O)N[C@@H](CCCCN)C(=O)N[C@@H](C)C(=O)NCC(=O)N[C@H]1CSSC[C@@H](C(=O)O)NC(=O)[C@H](CO)NC(=O)[C@H]([C@@H](C)O)NC(=O)[C@H](Cc2ccccc2)NC(=O)[C@H]([C@@H](C)O)NC(=O)[C@H](CCCCN)NC(=O)[C@H](Cc2c[nH]c3ccccc23)NC(=O)[C@H](Cc2ccccc2)NC(=O)[C@H](Cc2ccccc2)NC(=O)[C@H](CC(N)=O)NC(=O)[C@H](CCCCN)NC1=O` [L-Ser-L-Ala-L-Asn-L-Ser-L-Asn-L-Pro-L-Ala-L-Met-L-Ala-L-Pro-L-Arg-L-Glu-L-Arg-L-Lys-L-Ala-Gly-L-Cys(1)-L-Lys-L-Asn-L-Phe-L-Phe-L-Trp-L-Lys-L-Thr-L-Phe-L-Thr-L-Ser-L-Cys(1)-OH], for which the pKi in experiment [2] is 9.55. As for `C[C@H](O)[C@H]1NC(=O)[C@H](CCCCN)NC(=O)[C@@H](Cc2c[nH]c3ccccc23)NC(=O)[C@@H](Cc2ccccc2)NC(=O)[C@@H](C)N(C)C(=O)[C@@H](Cc2ccccc2)N(C)C1=O` [N-Methylcyclo(D-Ala-D-Phe-D-Trp-L-Lys-D-Thr-N-methyl-D-Phe-)] (cyclo(K[dT][dNMeF][dNMeA][dF][dW])), the negative-log Ki (pKi) is 6.39 in experiment [1] and 6.00 in experiment [2]. In turn, `C[C@@H](Oc1ccccc1)[C@@H]1NC(=O)[C@H](CCCCN)NC(=O)[C@@H](Cc2c[nH]c3ccccc23)NC(=O)[C@H](Cc2ccccc2)NCCCCCCNC1=O` [c[Aha-Phe-D-Trp-Lys-Thr(Bzl)]] showed a pKi in experiment [1] of 7.29. `C[C@@H](OCc1ccccc1)[C@@H]1NC(=O)[C@H](CCCCN)NC(=O)[C@@H](Cc2c[nH]c3ccccc23)NC(=O)[C@H](Cc2ccccc2)NC(=O)CCCCCCNC1=O` [c[Aha-Phe-D-Trp-Lys-Thr(Bzl)]] (cyclo([Ahp]F[dW]KT(Bn))) had a pKi in experiment [2] of 6.00.
